Experimental data reported in patent US12427171B2, “Krill oil composition enriched in LPC-DHA and LPC-EPA” (Aker BioMarine Human Ingredients AS, priority 2020, dated 2025).

Experiment: Mouse retinal fatty acid composition after daily gavage of free DHA, sn-1 DHA LPC or sn-2 DHA LPC for 30 days (GC/MS)
Assay type: in vivo
Settings: 1 mg DHA daily by gavage
Procedure: Normal male mice (C57 BL/J6, 16-week-old) were gavaged daily with 1 mg DHA in the form of free DHA, sn-1 DHA LPC, or sn-2 DHA LPC in 80 μL corn oil for 30 days. Retinal FA composition was analyzed by GC/MS. Only the values for arachidonic acid and the omega-3 FA are shown here (mean±SD, 8 animals/group). […] SD: standard deviation; sn-1 and sn-2: stereospecific numbering 1 and 2 respectively; LPC: lysophosphatidylcholine; DHA: docosahexaenoic acid.
Animals and dietary treatments: All studies in animals described here were approved by the Institutional Animal Care and Use Committee of the University of Illinois at Chicago. The retina samples were obtained from our previous studies on the brain accretion of DHA in mice and rats, which were published previously. Male Sprague-Dawley rats (8-week-old) were purchased from Harlan laboratories (Indianapolis, IN, USA). Male C57 BL/J6 mice (2-4-months-old) were purchased from Jackson Laboratories (Bar Harbor. Maine).
In the first study, male Sprague-Dawley rats (n=5 per group, 8-week-old) were gavaged daily with 10 mg of DHA (40 mg DHA/kg body weight) in the form of TAG-DHA (DHASCO algal oil, DSM Nutritional Products, Columbia, MD, USA), synthetic di-DHA PC (phosphatidylcholine), or synthetic LPC-DHA (sn-1 acyl) for 30 days. The DHA was distributed equally among the three positions of TAG-DHA [17]. […] In the second study, 4-month-old male C57 BL/J6 mice (n=8 per group) were gavaged daily with 40 mg DHA/kg body weight in the form of free (unesterified) DHA, sn-1 acyl LPC-DHA, or sn-2 acyl LPC-DHA for 30 days as described previously. In the third study, male C57 BL/J6 mice (2-months-old, n=5 per group) were fed diets enriched with natural or lipase-treated fish oil or hill oil for 30 days. The total amount of omega-3 FA (eicosapentaenoic acid (EPA)+DHA) was 2.64 g/kg diet in all the diets. The untreated hill oil contained 18% of total omega-3 FA as LPC, whereas the lipase-treated hill oil contained >80% of the total omega-3 FA as LPC. The fish oil diets contained no LPC-EPA or LPC-DHA. The animals were trans-cardially perfused with ice cold phosphate buffered saline under anesthesia and the retinas were collected and kept frozen at −80° C. until the analysis.
Analytical procedures: The total lipids of retina were extracted by Bligh and Dyer procedure and the fatty acids were methylated using methanolic HCl. The fatty acid analysis was carried out by GC/MS (gas chromatography/mass spectroscopy) using Shimadzu QP2010SE equipped with Supelco Omegawax column, as described previously. Total ion current in the range of 50-400 m/z was used for quantification of the methyl esters. For LC/MS/MS (liquid chromatography/tandem mass spectroscopy) analysis, the lipids were extracted by the procedure of Ivanova et al.. The analysis of molecular species of phospholipids was performed on an ABSciex QTRAP mass spectrometer (Redwood City, CA, USA) coupled with Agilent 2600 UPLC system (Santa Clara, CA, USA), by multiple reaction monitoring. The internal standards 17:0 LPC, di 17:0 PC, and di 17:0 PE (phosphatidylethanolamine) were used for the quantification of the corresponding molecular species, without applying any correction factors for the differences in the ion intensity of different molecular species.
Statistics and correlations: The significance of differences between treatment groups was determined by a one-way ANOVA, with Tukey post-hoc multiple comparison corrections or unpaired t-test between control and treated samples adjusted with Holm-Sidak method (Graphpad Prism 8.0, San Diego, CA, USA).

**Q.** For `CC/C=C\C/C=C\C/C=C\C/C=C\C/C=C\C/C=C\CCC(=O)OC[C@@H](O)COP(=O)([O-])OCC[N+](C)(C)C` [sn-1 DHA LPC], which “fatty acid composition of mouse retina, 12:0, Mean ± S.D.” value is on record?
**A.** The value was 0.73 ± 0.47.

**Q.** And the “fatty acid composition of mouse retina, 14:0, Mean ± S.D.” value?
**A.** The value was 0.30 ± 0.17.

**Q.** And the “fatty acid composition of mouse retina, 16:0, Mean ± S.D.” value?
**A.** The value was 14.62 ± 1.22.

**Q.** And the “fatty acid composition of mouse retina, 16:0 DMA, Mean ± S.D.” value?
**A.** The value was 1.02 ± 0.32.

**Q.** What about the “fatty acid composition of mouse retina, 16:1 (n-7), Mean ± S.D.” value of the same compound?
**A.** The value was 0.47 ± 0.34.

**Q.** What about the “fatty acid composition of mouse retina, 17:1 (n-7), Mean ± S.D.” value of the same compound?
**A.** Its value is 0.48 ± 0.38.

**Q.** What about the “fatty acid composition of mouse retina, 18:0, Mean ± S.D.” value of the same compound?
**A.** The value was 15.44 ± 1.50.

**Q.** And the “fatty acid composition of mouse retina, 18:0 DMA, Mean ± S.D.” value?
**A.** The value was 1.96 ± 0.30.

**Q.** What about the “fatty acid composition of mouse retina, 18:1(n-7), Mean ± S.D.” value of the same compound?
**A.** Its value is 3.82 ± 0.62.

**Q.** What about the “fatty acid composition of mouse retina, 18:1 (n-9), Mean ± S.D.” value of the same compound?
**A.** Its value is 15.56 ± 1.16.

**Q.** And the “fatty acid composition of mouse retina, 18:1 DMA, Mean ± S.D.” value?
**A.** Its value is 0.78 ± 0.64.

**Q.** What about the “fatty acid composition of mouse retina, 18:2 (n-6), Mean ± S.D.” value of the same compound?
**A.** The value was 1.38 ± 0.49.

**Q.** And the “fatty acid composition of mouse retina, 18:3 (n-3), Mean ± S.D.” value?
**A.** The value was 0.51 ± 0.42.

**Q.** And the “fatty acid composition of mouse retina, 18:3 (n-6), Mean ± S.D.” value?
**A.** Its value is 0.60 ± 0.47.

**Q.** What about the “fatty acid composition of mouse retina, 20:0, Mean ± S.D.” value of the same compound?
**A.** The value was 1.18 ± 0.72.

**Q.** And the “fatty acid composition of mouse retina, 20:1 (n-9), Mean ± S.D.” value?
**A.** Its value is 2.87 ± 0.60.

**Q.** What about the “fatty acid composition of mouse retina, 20:2 (n-6), Mean ± S.D.” value of the same compound?
**A.** The value was 0.88 ± 0.95.

**Q.** What about the “fatty acid composition of mouse retina, 20:3 (n-6), Mean ± S.D.” value of the same compound?
**A.** The value was 1.44 ± 0.35.

**Q.** What about the “fatty acid composition of mouse retina, 20:4 (n-6), Mean ± S.D.” value of the same compound?
**A.** The value was 5.75 ± 0.71.

**Q.** What about the “fatty acid composition of mouse retina, 20:5 (n-3), Mean ± S.D.” value of the same compound?
**A.** Its value is 1.91 ± 1.40.

**Q.** What about the “fatty acid composition of mouse retina, 22:0, Mean ± S.D.” value of the same compound?
**A.** The value was 1.24 ± 0.95.

**Q.** What about the “fatty acid composition of mouse retina, 22:2 (n-6), Mean ± S.D.” value of the same compound?
**A.** Its value is 1.00 ± 0.76.

**Q.** And the “fatty acid composition of mouse retina, 22:4 (n-6), Mean ± S.D.” value?
**A.** The value was 2.23 ± 0.87.

**Q.** And the “fatty acid composition of mouse retina, 22:5 (n-3), Mean ± S.D.” value?
**A.** The value was 0.79 ± 0.76.

**Q.** What about the “fatty acid composition of mouse retina, 22:6 (n-3), Mean ± S.D.” value of the same compound?
**A.** Its value is 22.57 ± 3.12.

**Q.** What about the “fatty acid composition of mouse retina, 24:1 (n-9), Mean ± S.D.” value of the same compound?
**A.** The value was 0.49 ± 0.17.

**Q.** For `CC/C=C\C/C=C\C/C=C\C/C=C\C/C=C\C/C=C\CCC(=O)O[C@H](CO)COP(=O)([O-])OCC[N+](C)(C)C` [sn-2 DHA LPC], which “fatty acid composition of mouse retina, 12:0, Mean ± S.D.” value is on record?
**A.** Its value is 0.73 ± 0.47.

**Q.** And the “fatty acid composition of mouse retina, 14:0, Mean ± S.D.” value?
**A.** Its value is 0.30 ± 0.17.

**Q.** And the “fatty acid composition of mouse retina, 16:0, Mean ± S.D.” value?
**A.** Its value is 14.62 ± 1.22.

**Q.** And the “fatty acid composition of mouse retina, 16:0 DMA, Mean ± S.D.” value?
**A.** The value was 1.02 ± 0.32.

**Q.** And the “fatty acid composition of mouse retina, 16:1 (n-7), Mean ± S.D.” value?
**A.** The value was 0.47 ± 0.34.

**Q.** What about the “fatty acid composition of mouse retina, 17:1 (n-7), Mean ± S.D.” value of the same compound?
**A.** The value was 0.48 ± 0.38.

**Q.** What about the “fatty acid composition of mouse retina, 18:0, Mean ± S.D.” value of the same compound?
**A.** Its value is 15.44 ± 1.50.

**Q.** What about the “fatty acid composition of mouse retina, 18:0 DMA, Mean ± S.D.” value of the same compound?
**A.** The value was 1.96 ± 0.30.

**Q.** And the “fatty acid composition of mouse retina, 18:1(n-7), Mean ± S.D.” value?
**A.** Its value is 3.82 ± 0.62.

**Q.** What about the “fatty acid composition of mouse retina, 18:1 (n-9), Mean ± S.D.” value of the same compound?
**A.** The value was 15.56 ± 1.16.

**Q.** And the “fatty acid composition of mouse retina, 18:1 DMA, Mean ± S.D.” value?
**A.** The value was 0.78 ± 0.64.

**Q.** And the “fatty acid composition of mouse retina, 18:2 (n-6), Mean ± S.D.” value?
**A.** Its value is 1.38 ± 0.49.

**Q.** What about the “fatty acid composition of mouse retina, 18:3 (n-3), Mean ± S.D.” value of the same compound?
**A.** Its value is 0.51 ± 0.42.

**Q.** And the “fatty acid composition of mouse retina, 18:3 (n-6), Mean ± S.D.” value?
**A.** The value was 0.60 ± 0.47.

**Q.** What about the “fatty acid composition of mouse retina, 20:0, Mean ± S.D.” value of the same compound?
**A.** The value was 1.18 ± 0.72.

**Q.** What about the “fatty acid composition of mouse retina, 20:1 (n-9), Mean ± S.D.” value of the same compound?
**A.** Its value is 2.87 ± 0.60.

**Q.** What about the “fatty acid composition of mouse retina, 20:2 (n-6), Mean ± S.D.” value of the same compound?
**A.** The value was 0.88 ± 0.95.

**Q.** What about the “fatty acid composition of mouse retina, 20:3 (n-6), Mean ± S.D.” value of the same compound?
**A.** Its value is 1.44 ± 0.35.

**Q.** And the “fatty acid composition of mouse retina, 20:4 (n-6), Mean ± S.D.” value?
**A.** The value was 5.75 ± 0.71.

**Q.** And the “fatty acid composition of mouse retina, 20:5 (n-3), Mean ± S.D.” value?
**A.** Its value is 1.91 ± 1.40.

**Q.** And the “fatty acid composition of mouse retina, 22:0, Mean ± S.D.” value?
**A.** The value was 1.24 ± 0.95.

**Q.** And the “fatty acid composition of mouse retina, 22:2 (n-6), Mean ± S.D.” value?
**A.** The value was 1.00 ± 0.76.

**Q.** What about the “fatty acid composition of mouse retina, 22:4 (n-6), Mean ± S.D.” value of the same compound?
**A.** The value was 2.23 ± 0.87.

**Q.** And the “fatty acid composition of mouse retina, 22:5 (n-3), Mean ± S.D.” value?
**A.** The value was 0.79 ± 0.76.

**Q.** What about the “fatty acid composition of mouse retina, 22:6 (n-3), Mean ± S.D.” value of the same compound?
**A.** The value was 22.57 ± 3.12.

**Q.** And the “fatty acid composition of mouse retina, 24:1 (n-9), Mean ± S.D.” value?
**A.** Its value is 0.49 ± 0.17.
